# Reference: patent US5070191A, “Demethylallosamidin and a process for production thereof” (Ajinomoto Co., Inc., priority 1989, dated 1991)
# Tests used:
# [1] = test system: Mouse ascitic mammary cancer cells FM3A; assay: Cytotoxicity, mouse ascitic mammary cancer cells FM3A; format: cell-based; settings: 1 mg/ml, 37° C., 4 days
# Method: (i) Mouse ascitic mammary cancer cells FM3A were inoculated in 1×10^5 /ml on Dulbecco modified MEM medium supplemented with 10% fetal calf serum and demethylallosamidin was added thereto in a concentration of 1 mg/ml followed by stationary culture at 37° C. for 4 days.
# [2] = molecular target: T1, fungi-derived chitinase (chitinase solution from baker's yeast) (Saccharomyces cerevisiae, UniProt P29029); assay: Determination of chitinase inhibitory activity (3H-chitin hydrolysis); format: biochemical; settings: for Inhibition Rate (%): 37° C., 3 hours, pH 3.0
# T1 construct: The cells were removed by centrifugation (0° C., 10 mins., 12,000 g); The resulting supernatant was concentrated to 200 ml by ultrafiltration; host or cells: baker's yeast; concentrated, acid-treated supernatant of shaken cells
# T1 sequence (P29029 21-562): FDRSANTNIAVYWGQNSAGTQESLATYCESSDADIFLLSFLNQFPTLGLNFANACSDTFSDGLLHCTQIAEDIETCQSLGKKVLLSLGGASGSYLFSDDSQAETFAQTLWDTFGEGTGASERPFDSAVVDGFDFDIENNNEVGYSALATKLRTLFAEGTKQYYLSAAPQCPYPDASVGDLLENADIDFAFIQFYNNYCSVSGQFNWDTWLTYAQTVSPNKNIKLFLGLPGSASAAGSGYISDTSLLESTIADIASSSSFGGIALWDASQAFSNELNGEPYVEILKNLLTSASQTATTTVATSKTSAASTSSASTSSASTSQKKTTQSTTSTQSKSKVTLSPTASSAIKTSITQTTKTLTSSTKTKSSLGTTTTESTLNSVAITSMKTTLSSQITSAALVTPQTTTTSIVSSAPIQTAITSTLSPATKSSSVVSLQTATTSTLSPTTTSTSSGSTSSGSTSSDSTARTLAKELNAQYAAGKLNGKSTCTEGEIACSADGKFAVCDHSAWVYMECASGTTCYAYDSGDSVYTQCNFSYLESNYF
# Method: A Sakaguchi flask of 2 liters was charged with 1 liter of 25 mM MES (Nakarai Chemical Co., Ltd.) buffer containing 0.1% β-mercaptoethanoland 200 g of baker's yeast (Kanegafuchi Chemical Industry Co., Ltd.) followed by shaking at 30° C. at 120 spm for 2 hours. The cells were removed by centrifugation (0° C., 10 mins., 12,000 g). The resulting supernatant was concentrated to 200 ml by ultrafiltration (TOYO ULTRAFILTER UP-20). After concentration, 400 ml of citrate buffer (0.15 M citric acid+0.15 M sodium citrate, pH 3.0) was added to the concentrate. After the formed precipitates were removed by centrifugation (0° C., 10 mins., 12,000 g), the resulting supernatant was concentrated to 40 ml by ultrafiltration. The concentrate was stored at 4° C. and used as the chitinase solution in the assay.
# 10 ml of 10% acetic acid was slowly added to 0.5 g of chitosan (PFANSTIEHL LABORATORIES INC.), then the mixture was kneaded in a mortar to become gel-like. After standing at room temperature overnight, 45 ml of methanol was added while thoroughly stirring. The mixture was filtered through a gauze and 0.75 ml of ^3 H-labeled acetic anhydride (NET 018A10 ACETIC ANHYDRIDE 5 mCi) was added to the filtrate obtained. The formed agar-like chitin was homogenized with a homogenizer, collected on a glass filter (Whatmann GF/B) and suspended in 10 ml of citrate buffer (pH 3.0). This chitin suspension (2.3 μCi/ml chitin suspension) was used as a substrate for assay.
# In an Epfendorf tube, 90 μl of the chitinase solution and 10 μl of the ^3 H-chitin suspension were charged and reacted at 37° C. for 3 hours. In this case, 90 μl of citrate buffer (pH 3.0) was used in place of 90 μl of the enzyme solution as a control sample and reacted in a similar manner. After the reaction, 100 μl of 10% trichloroacetic acid was added and the reaction solution was passed through a glass filter (Whatmann GF/B). After 10 ml of scintillant solution was added to the obtained filtrate, its radioactivity (dpm) was determined. The difference between the determined value and the control sample indicated chitinase activity. The scintillant solution was prepared by dissolving 4 g of Ominiflour (Daiichi Chemical) in 500 ml of toluene and adding 500 ml of Triton X-100 (Nakarai Chemical Co., Ltd.) to the solution.
# When allosamidin and demethylallosamidin were added, both were dissolved in 0.1 N acetic acid solution and 10 μl each of the solutions having the respective concentrations was added to the reaction system described above. Also, 10 μl of 0.1 N acetic acid was added to the blank and to the system in which no inhibitor was added, followed by the reaction described above.
# The inhibitory activity was calculated according to the equation below: [formula] wherein: A=chitinase activity (dpm) when no inhibitor was added.
# B=chitinase activity (dmp) when the inhibitor was added.
# In any of the measurements, three series of runs were used and a mean value was determined.
# [3] = test system: Fusarium nivale ATCC 42308; assay: Influence on growth of mold (length and branching degree of hyphae); format: cell-based; set-up: Length Hypha: unit not given here; settings: after 32 hours; for Branching Degree of Hypha (mean value of branch intervals of hyphae) / Length Hypha: 28° C.
# Method: Demethylallosamidin was added to the culture medium of mold to examine its influence. Firstly, Fusarium nivale ATCC 42308 was precultured in PDA medium (manufactured by Nissui Pharmaceutical Co., Ltd.) to form spores. The spores were suspended in physiological saline. The suspension was filtered through cotton to give a spore suspension free of hyphae. A fixed amount of the resulting suspension was inoculated on a medium supplemented with demethylallosamidin (0.80 μg/ml, 0.16 μg/ml) and on demethylallosamidin-free medium (control), respectively. […] The observation was performed as follows: sampling was made over definite periods of time, microscopic photographs were taken and the length and branching degree of hyphae were determined. The branching degree of hyphae is a mean value of branch intervals of hyphae. In any case, incubation was carried out at 28° C. at 120 strokes/min by charging 1 ml each of medium (0.03% of yeast extract, 0.03% of malt extract; both manufactured by Daigo Nutrient Co., Ltd.) and 0.1% of glucose in a testing tube with a cotton stopper (diameter of 11 mm).
# [4] = test system: Human leukemia cells K562; assay: Cytotoxicity, human leukemia cells K562; format: cell-based; settings: 1 mg/ml, 37° C., 4 days
# Method: (ii) Human leukemia cells K562 were inoculated in 1×10^5 /ml on FRMI 1640 medium supplemented with 10% fetal calf serum and demethylallosamidin was added thereto in a concentration of 1 mg/ml followed by stationary culture at 37° C. for 4 days.
# [5] = molecular target: T1, fungi-derived chitinase (chitinase solution from baker's yeast); settings: background statement; cited from earlier work
# [6] = test system: endo-type chitinase derived from insects; settings: background statement; cited from earlier work
# [7] = addition of demethylallosamidin
structure (smiles),measurement,setting,value
"CNC1=NC2C(O)C(OC3OC(CO)C(OC4OC(CO)C(O)C(O)C4NC(C)=O)C(O)C3NC(C)=O)C(CO)C2O1 (single isomer, unassigned) [Demethylallosamidin, demethylallosamidin]",growth inhibition (microscopic observation),[1],no growth inhibition
same,growth inhibition (microscopic observation),[1]; listed as demethylallosamidin,no growth inhibition was noted at all
same,inhibitory activity against fungi-derived chitinase (in words),[2],potent inhibitory activity
same,Inhibition Rate (%),[2]; amount added 0.05 μg,61.1%
same,Inhibition Rate (%),[2]; amount added 0.1 μg,73.9%
same,Inhibition Rate (%),[2]; amount added 0.2 μg,75.2%
same,Inhibition Rate (%),[2]; amount added 0.4 μg,84.6%
same,Inhibition Rate (%),[2]; amount added 0.8 μg,87.1%
same,inhibitory activity per unit weight relative to allosamidin,"[2]; fungi-derived chitinase, versus allosamidin",≤ 100 times
same,Branching Degree of Hypha (mean value of branch intervals of hyphae),[3]; 0.16 μg/ml,72.8 μm
same,Length Hypha,[3]; 0.16 μg/ml,364
same,Branching Degree of Hypha (mean value of branch intervals of hyphae),[3]; 0.80 μg/ml,74.2 μm
same,Length Hypha,[3]; 0.80 μg/ml,576
same,branching degree of hyphae (in words),[3]; [7],decreased
same,length of hyphae (in words),[3]; [7],obviously increased
same,growth inhibition (microscopic observation),[4],no growth inhibition
same,growth inhibition (microscopic observation),[4]; listed as demethylallosamidin,no growth inhibition was noted at all
"CC(=O)N[C@H]1[C@H](O[C@H]2[C@@H](O)[C@@H](NC(C)=O)[C@H](O[C@H]3[C@H](O)[C@H]4N=C(N(C)C)O[C@H]4[C@@H]3CO)O[C@@H]2CO)O[C@H](CO)[C@@H](O)[C@H]1O [Allosamidin, allosamidin]","inhibitory activity against chitinase derived from fungi (in words, background)",[5],weakly inhibitory activity
same,Inhibition Rate (%),[2]; amount added 1 μg,36.0%
same,Inhibition Rate (%),[2]; amount added 2 μg,47.6%
same,Inhibition Rate (%),[2]; amount added 4 μg,58.5%
same,inhibition of endo-type chitinase derived from insects (in words),[6],strongly inhibits
